Test: Solubility test of PrdP2Phen by LC-MS analysis
Format: physicochemical
Details: 1 mg in 1 mL of water, ultrasonic waves 5 minutes, filtrate analysed by LC-MS; one atmosphere, room temperature
Method: Next, a solubility test of PrdP2Phen was performed. Note that the solubility test was conducted at a pressure of one atmosphere at room temperature (RT).
In the LC-MS analysis, liquid chromatography (LC) separation was carried out with ACQUITY UPLC (manufactured by Waters Corporation), and MS analysis (mass spectrometry) was carried out with Xevo G2 Tof MS (manufactured by Waters Corporation). Acquity UPLC BEH C8 (2.1×100 mm, 1.7 μm) was used as a column for the LC separation. Acetonitrile was used for Mobile Phase A and a 0.1% aqueous solution of formic acid was used for Mobile Phase B. The injection amount of the sample was 5.0 μL. Note that in the analysis, the wavelength of a photodiode array detector was set to 263 nm±1 nm.
In a 5-mL sample bottle, 1 mg of PrdP2Phen was put and 1 mL of water was added thereto. This mixture was irradiated with ultrasonic waves for 5 minutes. This mixture was filtered through a membrane filter to remove the solid, and the resulting filtrate was diluted by five times with acetonitrile. The obtained solution was subjected to LC-MS analysis.

c1cc(-c2ccc(N3CCCC3)cc2)c2ccc3c(-c4ccc(N5CCCC5)cc4)ccnc3c2n1 [PrdP2Phen, 4,7-bis[4-(1-pyrrolidinyl)phenyl]-1,10-phenanthroline]
solubility in water: extremely low solubility in water
